Assay results taken from patent publication US12534707B2, “Method for generating cardiac tissue mimetics” (GENOME BIOLOGICS UG, priority 2019, dated 2026).
“Also recorded” adds a separate entry of the source.

Assays:
[1] = tested on: cardiac tissue mimetics (CTMs); experiment: CTM vascularisation (GFP-HUVEC sprout length, thickness, branch points); assay type: cell-based, rat, human; settings: 200 μM PE with 1 μM Propranolol or 50 μM Metoprolol, 10 days, vs 0.1% DMSO; FIGS. 21, 22
HUVEC spheroids = experiment: Spheroid-based angiogenic sprouting assay; assay type: cell-based, human; settings: for endothelial sprouting of HUVEC spheroids with supernatants of CM cultured with PE plus β-blocker: neonatal rat CM 72 hours with 200 μM PE + 1 μM Propranolol or 50 μM Metoprolol, vs PE alone, FIG. 25
Experimental: After 72 hours, cell culture supernatants were centrifuged (500×g, 5 minutes) to deplete dead cells and stored at −80° C.
Endothelial cell sprouting was studied by in vitro spheroid-based angiogenesis assays. In brief, HUVECs were trypsinized and transferred into a mixture of fully supplemented EBM™ and methylcellulose (80%:20%). […] After 24 hours, spheroids were collected, pelleted (200×g, 3 minuted), resuspended in methylcellulose supplemented with FCS (80%:20%) and embedded in a collagen Type-I gel (Corning; 354236). HUVEC spheroids were then either cultured with fully supplemented EBM (+/−VEGF (50 ng/mL; BioLegend; 583702) or +/−PE (200 μM)), maintenance medium or conditioned cell culture medium.

HUVEC = experiment: Tube formation assay; assay type: cell-based, human; settings: 1 μM Propranolol or 50 μM Metoprolol, 24 hours on Matrigel, vs Ctrl. and 0.1% DMSO; FIGS. 23, 24
Experimental: Tube formation assay was performed as previously described (J. U. G. Wagner, E. Chavakis, E. M. Rogg, M. Muhly-Reinholz, S. F. Glaser, S. Gunther, D. John, F. Bonini, A. M. Zeiher, L. Schaefer, M. J. Hannocks, R. A. Boon, S. Dimmeler, 2018, Arterioscler Thromb Vasc Biol 38(5), 1170-1177). Briefly, in vitro tube formation was performed with 2×10^4 HUVECs cultured in 100 μL of fully supplemented EBM™ in 96-well plates (Greiner Bio-One GmbH) that had been coated with 100 μL Matrigel® (Corning; 356234).

[2] = tested on: cardiac tissue mimetics (CTMs); experiment: Contractility measurement of CTMs (spontaneous beats per minute; pacing at 1 Hz and 15 V); settings: 200 μM PE with 1 μM Propranolol or 50 μM Metoprolol, 10 days, vs PE + 0.1% DMSO; FIG. 20
[3] = tested on: cardiac tissue mimetics (CTMs); experiment: CTM size measurement; settings: 200 μM PE + 1 μM Propranolol / 50 μM Metoprolol vs PE + 0.1% DMSO; FIG. 39
mature CTMs = experiment: Injury assay on mature CTMs (immunofluorescence, SHG, Sirius red); assay type: cell-based, rat, human
Experimental: In case of whole mount stainings, CTMs were permeabilized with 0.2% Triton® X-100 in PBS for 1 hour at room temperature followed by blocking with 5% horse serum (Sigma-Aldrich) in PBS for 30 minutes at room temperature. Primary antibodies (see Table 1) were diluted 1:200 in 5% horse serum and incubated over night at 4° C. Before using the secondary antibody (see table below), CTMs were washed three times with PBS containing 1% Tween 20 and 0.002% Triton® X-100 (referred as PBT from here after) for 20 minutes at room temperature. Secondary antibodies (1:500) and DAPI (1:1000; Carl-Roth GmbH & Co. KG) were diluted in 5% horse serum together and incubated for 4 hours at room temperature in the dark. […] Cryo-sections were prepared by embedding fixed spheroids in O.C.T medium (Tissue-Tek), snap-freezing them in liquid nitrogen and cutting them in 10 μm thick sections. Sections were permeabilized and blocked for one hour in 0.1% Triton® X100 (in PBS+BSA). Primary antibody incubated with the sections diluted 1:50-1:100 in 1 mM MgCl2, 1 mM CaCl2, 0.1 mM MnCl2, 1% Triton® X-100 or 0.2% saponin over night at 4° C. The next day, sections were washed trice with 0.1% Triton® X100/PBS or 0.2 saponin (five minutes each) and incubated with the secondary antibody diluted 1:200 in 0.1% Triton® X100 or 0.2% saponin (in PBS) for one hour at room temperature in the dark. Finally, sections were washed again trice with 0.1% Triton® X100/PBS or 0.2% saponin and mounted with mounting medium containing DAPI or Hoechst 33342. Endothelial cells were stained with Isolectin B4.
The second-harmonics generation imaging was performed on an upright spectral multiphoton microscope (Leica TCS SP8 DIVE, non-descanned spectral detectors, objective HC IRAPO L 25×/1.00 W) using 10 μm thick CTM sections. A 1045 nm laser was used for SHG and the signal was detected with a PMT and a detection window from 517 nm to 527 nm. A second detection window was used to record autofluorescence for comparison (552 nm to 565 nm).
Sirius red staining was used to determine collagen deposition and fibrosis in paraffin sections of young versus aged mice hearts. In a first step, the paraffin sections were deparaffinised with xylene (twice 10 minutes) and an ethanol series of 100%, 95%, 80%, 70% and 50% ethanol (5 minutes each step), before washing the sections with water and PBS (5 minutes each step). In a second step, a 0.1% Picrosirius Red solution was prepared by solving 0.5 g Sirius Red (Waldeck GmbH) in 500 mL picric acid (Sigma-Aldrich) that incubated with the deparaffinised sections for 1 hour. After washing two times with acidified water, the sections were dehydrated with 100% ethanol, cleared with xylene and mounted with Pertex (Medite) […]

COCCc1ccc(OCC(O)CNC(C)C)cc1 (centres unmarked) [Metoprolol]
angiogenic sprouting in PE-treated CTMs [1]: significant decrease | endothelial sprouting of HUVEC spheroids with supernatants of CM cultured with PE plus β-blocker (HUVEC spheroids): no significant alterations | direct effect on HUVEC tube formation (accumulated tube length) (HUVEC): no differences; also recorded: could not be detected | frequency of CTM contraction (beats per minute) [2]: significantly decreased; also recorded: reduced

CC(C)NCC(O)COc1cccc2ccccc12 (centres unmarked) [Propranolol]
angiogenic sprouting in PE-treated CTMs [1]: significant decrease | endothelial sprouting of HUVEC spheroids with supernatants of CM cultured with PE plus β-blocker (HUVEC spheroids): no significant alterations | direct effect on HUVEC tube formation (accumulated tube length) (HUVEC): no differences; also recorded: could not be detected | PE-induced hypertrophic growth (CTM size, fold change) [3]: diminished | frequency of CTM contraction (beats per minute) [2]: significantly decreased; also recorded: reduced

VEGF
EC spheroid growth / vascular network growth and branching (cumulative sprout length), direct treatment (HUVEC spheroids): significantly increased

B1: TGF β2: transforming growth factor β2 (R&D Systems; 302-B2), inducer of endothelial-mesenchymal transition and cardiac fibrosis (protein, UniProt P61812 303-414, looked up)
Transforming growth factor …: ALDAAYCFRNVQDNCCLRPLYIDFKRDLGWKWIHEPKGYNANFCAGACPYLWSSDTQHSRVLSLYNTINPEASASPCCVSQDLEPLTILYYIGKTPKIEQLSNMIVKSCKCS
endothelial-mesenchymal transition (ECs expressing vimentin, SM22α, collagen III) (mature CTMs; mature CTMs treated 3 days with TGF β2, FIGS. 32, 40): occurs; also recorded: single ECs expressing vimentin were found | cardiac fibroblast activation (vimentin staining) (mature CTMs; mature CTMs with or without TGF β2, FIG. 28): evidence of cardiac fibroblast activation | CTM vascularization (angiogenic sprouting) (mature CTMs; mature CTMs, 200 μM PE + 10 ng/mL TGF β2, 3 days, vs PE, FIGS. 26, 27): slightly increased; also recorded: failed to reach significance | collagen deposition (SHG, Sirius Red staining) (mature CTMs; mature CTMs, PE + 10 ng/mL TGF β2, 3 days, FIGS. 29-31): induced; also recorded: augments
